Measurements from patent publication US8658646B2, “Pyrrolopyrazine kinase inhibitors” (Hoffmann-LaRoche Inc., priority 2011, dated 2014).
Counter-ions that a name gives are not always drawn.

Molecular target: T1, recombinant human SYK360-635 (Homo sapiens, UniProt P43405)
T1 construct: made in house
Assay: Determination of IC50 of Spleen Tyrosine Kinase (SYK) inhibition, 33P ATP filtration assay
Format: biochemical
Settings: SYK aa 360-635 0.5 nM; ATP 20 μM, peptide 5 μM, 0.1% BSA; read-out: SYK_ENZYME_FILTRATION/v1, BSA
Experimental: All concentrations were final in the reaction mixture and all incubations were carried at room temperature. […] SYK Assay Information Determination of IC50 of Spleen Tyrosine Kinase (SYK) Inhibition:
SYK kinase assay is a standard kinase assay adapted to a 96 well plate format. This assay is performed in 96-well format for IC50 determination with 8 samples which represented 10 half log dilutions and a 40 μL reaction volume. The assay measures the incorporation of radiolabeled ^33P γATP into an N-terminally biotinylated peptide substrate, derived from naturally occurring phosphoacceptor consensus sequence (Biotin-11aa DY*E). […] Experimental Method:
DMSO and the mixture was incubated for 10 min at RT.
The kinase reaction was initiated by the addition of 10 μL 4× substrate cocktail containing the DYE peptide substrate [0 or 5 μM], ATP [20 μM] and ^33PγATP [2 μCi/r×n]. After incubation at 30° C. for 15 min, the reaction was terminated by the transfer of 25 μL pf the reaction sample to a 96 well 0.65 μm Millipore MADVNOB membrane/plate containing 200 μL 5 mM EDTA and 20% Streptavidine coated beads in PBS.
The unbound radionucleotides were washed under vacuum with 3×250 μL 2M NaCl; 2×250 μL 2M NaCl+1% phosphoric acid; 1×250 μL H2O. After the last wash membrane/plates were transferred to an adaptor plate, heat dried for 15 min at 60° C., and 50 μL scintillation cocktail was added to each well and 4 h later the amount of radioactivity was counted in a top counter.

SMILES	IC50 [nM]
Cc1ccc2c(-c3cnc4[nH]cc(C(=O)NC5(CO)CC5)c4n3)n[nH]c2c1 [Example I-432, 2-(6-Methyl-1H-indazol-3-yl)-5H-pyrrolo[2,3-b]pyrazine-7-carboxylic acid (1-hydroxymethyl-cyclopropyl)-amide]	5.6
CC(C)(CO)NC(=O)c1c[nH]c2ncc(-n3ncc4ccccc43)nc12 [Example I-321, 2-Indazol-1-yl-5H-pyrrolo[2,3-b]pyrazine-7-carboxylic acid (2-hydroxy-1,1-dimethyl-ethyl)-amide]	150
Cn1nc(-c2cnc3[nH]cc(C(=O)NC(C)(C)C(C)(C)N)c3n2)c2ccc(F)cc21 [Example I-393, 2-(6-Fluoro-1-methyl-1H-indazol-3-yl]-5H-pyrrolo[2,3-b]pyrazine-7-carboxylic acid (2-amino-1,1,2-trimethyl-propyl)-amide]	492
Cn1nc(-c2cnc3[nH]cc(C(=O)NC(C)(C)C)c3n2)c2c1CCCC2 [Example I-295, 2-(1-Methyl-4,5,6,7-tetrahydro-1H-indazol-3-yl)-5H-pyrrolo[2,3-b]pyrazine-7-carboxylic acid tert-butylamide]	12.6
C#CC1CN(C(=O)c2c[nH]c3ncc(-c4nn(C)c5cc(F)ccc45)nc23)C1 [Example I-360, (3-Ethynyl-azetidin-1-yl)-[2-(6-fluoro-1-methyl-1H-indazol-3-yl)-5H-pyrrolo[2,3-b]pyrazin-7-yl]-methanone]	1550
CC(C)(C)NC(=O)c1c[nH]c2ncc(-c3n[nH]c4cc(F)ccc34)nc12 [Example I-411, 2-(6-Fluoro-1H-indazol-3-yl)-5H-pyrrolo[2,3-b]pyrazine-7-carboxylic acid tert-butylamide]	95.4
Cc1ccc2c(-c3cnc4[nH]cc(C(=O)NC5(C#N)CC5)c4n3)nn(C)c2c1 [Example I-424, 2-(1,6-Dimethyl-1H-indazol-3-yl)-5H-pyrrolo[2,3-b]pyrazine-7-carboxylic acid (1-cyano-cyclopropyl)-amide]	7.7
CC(CC1CC1)NC(=O)c1c[nH]c2ncc(-c3nn(C)c4cc(F)ccc34)nc12 (stereo not drawn) [Example I-186, 2-(6-Fluoro-1-methyl-1H-indazol-3-yl)-5H-pyrrolo[2,3-b]pyrazine-7-carboxylic acid (2-cyclopropyl-1-methyl-ethyl)-amide]	129
Cn1nc(-c2cnc3[nH]cc(C(=O)NC4(CN)CC4)c3n2)c2ccc(F)cc21 [Example I-443, 2-(6-Fluoro-1-methyl-1H-indazol-3-yl)-5H-pyrrolo[2,3-b]pyrazine-7-carboxylic acid (1-aminomethyl-cyclopropyl)-amide]	656
Cc1ccc2c(-c3cnc4[nH]cc(C(=O)NC(C)(C)C)c4n3)nn(CCCN(C)C)c2c1 [Example I-427, 2-[1-(3-Dimethylamino-propyl)-6-methyl-1H-indazol-3-yl]-5H-pyrrolo[2,3-b]pyrazine-7-carboxylic acid tert-butylamide]	13.3
CC(C)NC(=O)c1c[nH]c2ncc(-c3nn(Cc4ccccc4)c4cc(Cl)ccc34)nc12 [Example I-308, 2-(1-Benzyl-6-chloro-1H-indazol-3-yl)-5H-pyrrolo[2,3-b]pyrazine-7-carboxylic acid isopropylamide]	860
CC(C)NC(=O)c1c[nH]c2ncc(-c3n[nH]c4cc(Cl)ccc34)nc12 [Example I-306, 2-(6-Chloro-1H-indazol-3-yl)-5H-pyrrolo[2,3-b]pyrazine-7-carboxylic acid isopropylamide]	7.25
Cn1nc(-c2cnc3[nH]cc(C(=O)NCC4(O)CNC4)c3n2)c2ccc(F)cc21 [Example I-463, 2-(6-Fluoro-1-methyl-1H-indazol-3-yl)-N-((3-hydroxyazetidin-3-yl)methyl)-5H-pyrrolo[3,2-b]pyrazine-7-carboxamide trifluoroacetate]	5.42
Cc1ccc2c(-c3cnc4[nH]cc(C(=O)NC(C)(C)CO)c4n3)nn(CCN3CCOCC3)c2c1 [Example I-445, 2-[6-Methyl-1-(2-morpholin-4-yl-ethyl)-1H-indazol-3-yl]-5H-pyrrolo[2,3-b]pyrazine-7-carboxylic acid (2-hydroxy-1,1-dimethyl-ethyl)-amide]	24.7
CC(C)(CO)NC(=O)c1c[nH]c2ncc(-n3ncc4cc(F)ccc43)nc12 [Example I-320, 2-(5-Fluoro-indazol-1-yl)-5H-pyrrolo[2,3-b]pyrazine-7-carboxylic acid (2-hydroxy-1,1-dimethyl-ethyl)-amide]	56.7
Cn1nc(-c2cnc3[nH]cc(C(=O)NC4(C#N)CC4)c3n2)c2ccc(F)cc21 [Example I-387, 2-(6-Fluoro-1-methyl-1H-indazol-3-yl)-5H-pyrrolo[2,3-b]pyrazine-7-carboxylic acid (1-cyano-cyclopropyl)-amide]	31.7
Cn1nc(-c2cnc3[nH]cc(C(=O)N[C@]4(C)CC[C@@H](N)CC4)c3n2)c2ccc(F)cc21 [Example I-416, 2-(6-Fluoro-1-methyl-1H-indazol-3-yl)-5H-pyrrolo[2,3-b]pyrazine-7-carboxylic acid (trans-4-amino-1-methyl-cyclohexyl)-amide]	1.95
COc1ccc2c(c1)c(-c1cnc3[nH]cc(C(=O)NC(C)(C)CO)c3n1)nn2C [Example I-288, 2-(5-Methoxy-1-methyl-1H-indazol-3-yl)-5H-pyrrolo[2,3-b]pyrazine-7-carboxylic acid (2-hydroxy-1,1-dimethyl-ethyl)-amide]	7.95
Cn1nc(-c2cnc3[nH]cc(C(=O)NC(C)(C)CCO)c3n2)c2ccc(F)cc21 [Example I-400, 2-(6-Fluoro-1-methyl-1H-indazol-3-yl)-5H-pyrrolo[2,3-b]pyrazine-7-carboxylic acid (3-hydroxy-1,1-dimethyl-propyl)-amide]	8.57
Cc1nn(-c2cnc3[nH]cc(C(=O)NC(C)(C)CO)c3n2)c2ccc(Cl)cc12 [Example I-319, 2-(5-Chloro-3-methyl-indazol-1-yl)-5H-pyrrolo[2,3-b]pyrazine-7 carboxylic acid (2-hydroxy-1,1-dimethyl-ethyl)-amide]	34.6
CC(C)(C)NC(=O)c1c[nH]c2ncc(-c3cccc4ccncc34)nc12 [Example I-444, 2-Isoquinolin-8-yl-5H-pyrrolo[2,3-b]pyrazine-7-carboxylic acid tert-butylamide]	1040
Cn1nc(-c2cnc3[nH]cc(C(=O)NC(C)(C)C)c3n2)c2cc(C(F)(F)F)ccc21 [Example I-412, 2-(1-Methyl-5-trifluoromethyl-1H-indazol-3-yl)-5H-pyrrolo[2,3-b]pyrazine-7-carboxylic acid tert-butylamide]	73.6
CC(C)(C)NC(=O)c1c[nH]c2ncc(-c3nn(CC(=O)N4CCN(CC(F)(F)F)CC4)c4ccc(OC(F)F)cc34)nc12 [Example I-352, 2-(5-Difluoromethoxy-1-{2-oxo-2-[4-(2,2,2-trifluoro-ethyl)-piperazin-1-yl]-ethyl}-1H-indazol-3-yl)-5H-pyrrolo[2,3-b]pyrazine-7-carboxylic acid tert-butylamide]	15.9
Cn1nc(-c2cnc3[nH]cc(C(=O)NC(C)(C)C)c3n2)c2ncccc21 [Example I-259, 2-(1-Methyl-1H-pyrazolo[4,3-b]pyridin-3-yl)-5H-pyrrolo[2,3-b]pyrazine-7-carboxylic acid tert-butylamide]	42.9
